Measured values taken from patent publication US20190100553A1, “DIRECT ACTIVITY ASSAYS AND COMPOSITIONS FOR NUCLEOTIDE POOL SANITIZING ENZYMES” (priority 2016, published 2019).

Target: T1, MTH1 (Homo sapiens, UniProt P36639)
T1 construct: Human MTH1 full length protein purchased from Abcam (Cambridge, USA); purchased Abcam
Test: MTH1 inhibitor IC50 determination by two-tube OGAL probe assay
Assay type: biochemical
Settings: 40 μM OGAL, read-out: apparent IC50
Protocol: Inhibitory concentration (IC50) values were determined by the two-tube OGAL probe assay. The reaction buffer contained: 50 mM NaCl, 10 mM Tris-HCl (pH 7.9), 10 mM MgCl2, 1 mM DTT, 40 μM OGAL nucleotides, and varied concentrations of inhibitors. After 15 min incubation at 30° C., 5 μL of this reaction solution was added to 95 μL luciferase reaction solution in a 96 well plate to measure ATP signals. All the reactions were performed as three replicates. The IC50 was calculated using GraphPad Prism software.

IC50: 1.9 µM
SMILES: Nc1ncnc2c1c(-c1cccc(OCc3ccccc3)c1)cn2C1CC(CN2CCC2)C1 (stereo not shown) [NVP-AEW541]
